# Test results: the Biogen ADME set (Fang et al. 2023)
# Conditions: for aqueous solubility: pH 6.8
Structure (SMILES),MDR1-MDCK efflux ratio,"intrinsic clearance, human liver microsomes [mL/min/kg]","intrinsic clearance, rat liver microsomes [mL/min/kg]",aqueous solubility [µg/mL],"fraction unbound, human plasma","fraction unbound, rat plasma"
CSCC(=O)N1CCN(C(=O)CSC)C2(CCCCC2)C1,5.33,57.8,868,50.5,–,–
O=C(CCCc1cc(Cl)sc1Cl)N1CC[C@H](O)C1,1.49,18.6,506,50,–,–
COC(=O)c1ccc2c(c1)CCN2S(=O)(=O)c1ccc(Cl)c(C(F)(F)F)c1,–,–,–,0.9,–,–
Cc1ccsc1-c1nsc(NC(=O)CN(C)C)n1,0.874,≤ 4.74,548,–,–,–
Cc1ccc(C(=O)C(=O)NC2CCCC2)cc1,0.471,104,465,30.2,–,–
CC(C)[C@H](O)C(=O)N[C@@H](C)C(=O)N[C@@H]1C(=O)N(C)CCc2ccccc21,–,6.33,14.2,–,–,–
O=C(c1ccc2c(c1)CCCC2)N1CCOCC1c1ccn[nH]1 (stereo not drawn),4.04,–,–,–,–,–
O=C(CN1CCSC1=O)Nc1ccccc1F,0.739,≤ 4.74,≤ 10.7,31.6,–,–
CNC(=O)Cc1cccc(OCCN2CCCCC2)c1,11.8,≤ 4.74,57.3,–,–,–
CS(=O)(=O)N1CCN(Cc2cc3c(cc2O)OCO3)CC1,–,28.6,278,–,–,–
CNC(=O)c1ccc(N(C)C2CCC2)nn1,0.586,24.8,40.3,47.3,–,–
Cc1nc([C@H]2CC[C@H](CNC(=O)CN3CCC(c4ccccc4)CC3)CC2)ccc1C(N)=O,14.9,37.3,390,70.2,–,–
O=C1NCC2(C/C=C/CCOc3ccccc31)CCN(C(=O)c1ccc3[nH]nnc3c1)CC2,45.8,42.8,165,24.4,–,–
NC(=O)c1csc(CN2CCc3cc(F)ccc3C2)c1,0.686,5.46,252,–,–,–
O=C(c1ccccc1)N1CCN2C(=O)N(Cc3ccccc3)C(=O)[C@H]2C1,1.52,6.77,78.8,62.3,–,–
Cc1ccc(C)c(C(=O)Nc2cnc3c(c2)c(C)nn3C)c1,0.67,6.52,129,2.33,–,–
Cc1ccc(=O)n(CCOc2cc(F)cc(Br)c2)n1,0.596,140,901,–,–,–
O=c1[nH]c2nc(N3CCc4ccccc4C3)ncc2c(=O)n1-c1ccccc1,0.445,–,–,0.2,–,–
Cc1ncsc1C(=O)N1CCCCC1c1nc(N)ncc1-c1cccc(C(F)(F)F)c1 (stereo not drawn),9.17,373,578,14.3,0.0412,0.0729
Cc1nn(C)c2sc(C(=O)N3CCC(C(=O)O)(c4ccccc4)CC3)cc12,8.54,≤ 4.74,≤ 10.7,73.7,–,–
Cc1c(C(=O)NCCc2cc3nc(-c4ccco4)ccn3n2)cnn1C,–,29,173,–,–,–

Structure (SMILES),MDR1-MDCK efflux ratio,"intrinsic clearance, human liver microsomes [mL/min/kg]","intrinsic clearance, rat liver microsomes [mL/min/kg]",aqueous solubility [µg/mL],"fraction unbound, human plasma","fraction unbound, rat plasma"
COCCOc1ccc2c(c1)ncn2-c1ccc2cccc(N3CCC(N)CC3)c2n1,–,14.7,258,30.4,–,–
Cc1cc(N(C)Cc2ccc(N)nc2)nc(-c2ccncc2)n1,4.4,44.2,328,28.9,–,–
Cc1ccc(NC(=O)OC(C)(C)C)c2c1N(C(=O)[C@H]1CCCO1)CCC2,2.91,33.6,377,32.2,–,–
c1ccc2[nH]c(C3CCNCC3)nc2c1,–,–,–,56.3,–,–
CC(C)C[C@@H](C(N)=O)n1ccnc1-c1cccc2ccccc12,47.6,329,1410,32.6,–,–
CC(=O)c1ccc(-c2ccc(-c3nn[nH]n3)cc2)cc1,–,11.1,52.7,–,–,–
O=C(CCCC(=O)N1CCN(c2nsc3ccccc23)CC1)Nc1nccs1,11.2,73.7,512,–,–,–
N#CCn1ncnc1-c1cccc(C#N)c1,0.748,≤ 4.74,50.8,–,–,–
COc1cccc(C(=O)N(C)CC(F)(F)F)c1OCCCN,30.1,≤ 4.74,82.1,–,–,–
O=C(NC[C@H]1COCc2nc3ccccc3n21)c1ccncc1,23.9,18.9,131,52.1,–,–
c1ccc(-c2noc(C3CCNCC3)n2)nc1,–,≤ 4.74,≤ 10.7,–,–,–
CN(Cc1ccccc1)C1(C(=O)N2CCNC(=O)CC2)Cc2ccccc2C1,8.66,113,2760,–,0.0803,0.0818
COc1ccc(CC(=O)Nc2ccc(F)nc2)cc1,0.624,16.5,76.5,–,–,–
CC1CCN(C(=O)CCn2ccc3ccncc32)CC1,1.98,119,1960,–,–,–
O=C(NC1CCNCC1)c1ccc2[nH]ncc2c1,0.239,25.9,–,–,0.696,0.845
Cc1cccc(Oc2cc(CN)ccn2)c1C,0.443,≤ 4.74,527,30.1,–,–
CN(C)Cc1cccc(N/C(=C2\C(=O)Nc3cc(C(=O)N(C)C)ccc32)c2ccccc2)c1,45.4,76.2,152,65.7,–,–
Cc1nn(C)c(C)c1CNc1ccc(N2CCN(C)CC2)nc1,–,≤ 4.74,≤ 10.7,–,–,–
Cc1cncc(C2CCN(Cc3cnccn3)CC2)n1,0.65,≤ 4.74,60.6,67.8,–,–
C#Cc1cccc(N(CC(=O)NC(N)=O)Cc2cccs2)c1,2.25,38.5,1610,–,–,–
